Reference: patent US20230157952A1, “METHOD FOR IMPROVING THE STABILITY OF A PHARMACEUTICAL COMPOSITION COMPRISING A HIGH PENETRATION DRUG, AND THE PHARMACEUTICAL COMPOSITION OBTAINED THEREFROM” (Techfields Inc., priority 2020, published 2023)

Assay: Effect of temperature (and pH) on the stability of the solution (purity)
Type: physicochemical
Settings: 7% solution in water

SMILES: CCN(CC)CCOC(=O)Cc1ccc(C(=O)c2ccc(C)cc2)n1C.Cl
- Purity(%) at day 0 (pH 1.0, day 0): 97.4 ± 0.4%
- Purity(%) at day 21 (5° C.) (pH 1.0, day 21, 5° C.): 90.3 ± 0.3%
- Purity(%) at day 21 (25° C.) (pH 1.0, day 21, 25° C.): 65.5 ± 0.3%
- Purity(%) at day 21 (40° C.) (pH 1.0, day 21, 40° C.): 9.4 ± 0.3%
- Purity (%) at day 21 (60° C.) (pH 1.0, day 21, 60° C.): 0%
- Purity(%) at day 0 (pH 2.0, day 0): 97.6 ± 0.3%
- Purity(%) at day 21 (5° C.) (pH 2.0, day 21, 5° C.): 93.5 ± 0.3%
- Purity(%) at day 21 (25° C.) (pH 2.0, day 21, 25° C.): 78.1 ± 0.3%
- Purity(%) at day 21 (40° C.) (pH 2.0, day 21, 40° C.): 20.6 ± 0.3%
- Purity (%) at day 21 (60° C.) (pH 2.0, day 21, 60° C.): 0%
- Purity(%) at day 0 (pH 3.0, day 0): 97.8 ± 0.2%
- Purity(%) at day 21 (5° C.) (pH 3.0, day 21, 5° C.): 95.3 ± 0.3%
- Purity(%) at day 21 (25° C.) (pH 3.0, day 21, 25° C.): 91.2 ± 0.2%
- Purity(%) at day 21 (40° C.) (pH 3.0, day 21, 40° C.): 41.7 ± 0.2%
- Purity (%) at day 21 (60° C.) (pH 3.0, day 21, 60° C.): 0%
- Purity(%) at day 0 (pH 3.7, day 0): 97.9 ± 0.2%
- Purity(%) at day 21 (5° C.) (pH 3.7, day 21, 5° C.): 96.4 ± 0.2%
- Purity(%) at day 21 (25° C.) (pH 3.7, day 21, 25° C.): 95.6 ± 0.2%
- Purity(%) at day 21 (40° C.) (pH 3.7, day 21, 40° C.): 56.6 ± 0.2%
- Purity (%) at day 21 (60° C.) (pH 3.7, day 21, 60° C.): 11.5 ± 0.3%
- Purity(%) at day 0 (pH 4.0, day 0): 98.1 ± 0.1%
- Purity(%) at day 21 (5° C.) (pH 4.0, day 21, 5° C.): 96.8 ± 0.1%
- Purity(%) at day 21 (25° C.) (pH 4.0, day 21, 25° C.): 95.7 ± 0.2%
- Purity(%) at day 21 (40° C.) (pH 4.0, day 21, 40° C.): 58.3 ± 0.2%
- Purity (%) at day 21 (60° C.) (pH 4.0, day 21, 60° C.): 23.0 ± 0.3%
- Purity(%) at day 0 (pH 4.3, day 0): 98.1 ± 0.2%
- Purity(%) at day 21 (5° C.) (pH 4.3, day 21, 5° C.): 96.9 ± 0.1%
- Purity(%) at day 21 (25° C.) (pH 4.3, day 21, 25° C.): 95.4 ± 0.1%
- Purity(%) at day 21 (40° C.) (pH 4.3, day 21, 40° C.): 60.1 ± 0.1%
- Purity (%) at day 21 (60° C.) (pH 4.3, day 21, 60° C.): 25.8 ± 0.2%
- Purity(%) at day 0 (pH 4.6, day 0): 97.9 ± 0.1%
- Purity(%) at day 21 (5° C.) (pH 4.6, day 21, 5° C.): 96.3 ± 0.2%
- Purity(%) at day 21 (25° C.) (pH 4.6, day 21, 25° C.): 94.9 ± 0.2%
- Purity(%) at day 21 (40° C.) (pH 4.6, day 21, 40° C.): 55.3 ± 0.2%
- Purity (%) at day 21 (60° C.) (pH 4.6, day 21, 60° C.): 13.5 ± 0.3%
- Purity(%) at day 0 (pH 5.0, day 0): 97.8 ± 0.2%
- Purity(%) at day 21 (5° C.) (pH 5.0, day 21, 5° C.): 96.1 ± 0.2%
- Purity(%) at day 21 (25° C.) (pH 5.0, day 21, 25° C.): 92.1 ± 0.3%
- Purity(%) at day 21 (40° C.) (pH 5.0, day 21, 40° C.): 37.8 ± 0.3%
- Purity (%) at day 21 (60° C.) (pH 5.0, day 21, 60° C.): 1.7 ± 0.3%
- Purity(%) at day 0 (pH 6.0, day 0): 97.6 ± 0.3%
- Purity(%) at day 21 (5° C.) (pH 6.0, day 21, 5° C.): 94.4 ± 0.2%
- Purity(%) at day 21 (25° C.) (pH 6.0, day 21, 25° C.): 79.5 ± 0.3%
- Purity(%) at day 21 (40° C.) (pH 6.0, day 21, 40° C.): 19.5 ± 0.2%
- Purity (%) at day 21 (60° C.) (pH 6.0, day 21, 60° C.): 0%
- Purity(%) at day 0 (pH 7.0, day 0): 97.4 ± 0.3%
- Purity(%) at day 21 (5° C.) (pH 7.0, day 21, 5° C.): 90.0 ± 0.3%
- Purity(%) at day 21 (25° C.) (pH 7.0, day 21, 25° C.): 59.7 ± 0.3%
- Purity(%) at day 21 (40° C.) (pH 7.0, day 21, 40° C.): 5.7 ± 0.3%
- Purity (%) at day 21 (60° C.) (pH 7.0, day 21, 60° C.): 0%
- Purity(%) at day 0 (pH 8.0, day 0): 97.1 ± 0.3%
- Purity(%) at day 21 (5° C.) (pH 8.0, day 21, 5° C.): 78.1 ± 0.3%
- Purity(%) at day 21 (25° C.) (pH 8.0, day 21, 25° C.): 43.6 ± 0.4%
- Purity(%) at day 21 (40° C.) (pH 8.0, day 21, 40° C.): 0%
- Purity (%) at day 21 (60° C.) (pH 8.0, day 21, 60° C.): 0%

SMILES: CCN(CC)CCOC(=O)CC1=C(C)C(=Cc2ccc([S+](C)[O-])cc2)c2ccc(F)cc21.Cl (centres unmarked)
- Purity(%) at day 0 (pH 1.0, day 0): 97.2 ± 0.3%
- Purity(%) at day 21 (5° C.) (pH 1.0, day 21, 5° C.): 91.1 ± 0.4%
- Purity(%) at day 21 (25° C.) (pH 1.0, day 21, 25° C.): 67.5 ± 0.4%
- Purity(%) at day 21 (40° C.) (pH 1.0, day 21, 40° C.): 10.4 ± 0.4%
- Purity (%) at day 21 (60° C.) (pH 1.0, day 21, 60° C.): 0%
- Purity(%) at day 0 (pH 2.0, day 0): 97.3 ± 0.3%
- Purity(%) at day 21 (5° C.) (pH 2.0, day 21, 5° C.): 94.7 ± 0.3%
- Purity(%) at day 21 (25° C.) (pH 2.0, day 21, 25° C.): 81.1 ± 0.3%
- Purity(%) at day 21 (40° C.) (pH 2.0, day 21, 40° C.): 23.6 ± 0.3%
- Purity (%) at day 21 (60° C.) (pH 2.0, day 21, 60° C.): 0%
- Purity(%) at day 0 (pH 3.0, day 0): 97.6 ± 0.2%
- Purity(%) at day 21 (5° C.) (pH 3.0, day 21, 5° C.): 96.3 ± 0.2%
- Purity(%) at day 21 (25° C.) (pH 3.0, day 21, 25° C.): 92.2 ± 0.2%
- Purity(%) at day 21 (40° C.) (pH 3.0, day 21, 40° C.): 45.7 ± 0.3%
- Purity (%) at day 21 (60° C.) (pH 3.0, day 21, 60° C.): 0%
- Purity(%) at day 0 (pH 3.7, day 0): 97.6 ± 0.2%
- Purity(%) at day 21 (5° C.) (pH 3.7, day 21, 5° C.): 97.3 ± 0.2%
- Purity(%) at day 21 (25° C.) (pH 3.7, day 21, 25° C.): 96.8 ± 0.2%
- Purity(%) at day 21 (40° C.) (pH 3.7, day 21, 40° C.): 55.5 ± 0.2%
- Purity (%) at day 21 (60° C.) (pH 3.7, day 21, 60° C.): 13.5 ± 0.3%
- Purity(%) at day 0 (pH 4.0, day 0): 97.9 ± 0.1%
- Purity(%) at day 21 (5° C.) (pH 4.0, day 21, 5° C.): 97.4 ± 0.1%
- Purity(%) at day 21 (25° C.) (pH 4.0, day 21, 25° C.): 96.9 ± 0.1%
- Purity(%) at day 21 (40° C.) (pH 4.0, day 21, 40° C.): 60.3 ± 0.2%
- Purity (%) at day 21 (60° C.) (pH 4.0, day 21, 60° C.): 19.7 ± 0.3%
- Purity(%) at day 0 (pH 4.3, day 0): 97.7 ± 0.2%
- Purity(%) at day 21 (5° C.) (pH 4.3, day 21, 5° C.): 97.3 ± 0.1%
- Purity(%) at day 21 (25° C.) (pH 4.3, day 21, 25° C.): 96.7 ± 0.1%
- Purity(%) at day 21 (40° C.) (pH 4.3, day 21, 40° C.): 63.1 ± 0.1%
- Purity (%) at day 21 (60° C.) (pH 4.3, day 21, 60° C.): 16.8 ± 0.2%
- Purity(%) at day 0 (pH 4.6, day 0): 97.8 ± 0.1%
- Purity(%) at day 21 (5° C.) (pH 4.6, day 21, 5° C.): 97.3 ± 0.2%
- Purity(%) at day 21 (25° C.) (pH 4.6, day 21, 25° C.): 95.9 ± 0.2%
- Purity(%) at day 21 (40° C.) (pH 4.6, day 21, 40° C.): 57.3 ± 0.2%
- Purity (%) at day 21 (60° C.) (pH 4.6, day 21, 60° C.): 15.5 ± 0.3%
- Purity(%) at day 0 (pH 5.0, day 0): 97.7 ± 0.3%
- Purity(%) at day 21 (5° C.) (pH 5.0, day 21, 5° C.): 96.1 ± 0.2%
- Purity(%) at day 21 (25° C.) (pH 5.0, day 21, 25° C.): 93.9 ± 0.3%
- Purity(%) at day 21 (40° C.) (pH 5.0, day 21, 40° C.): 38.9 ± 0.3%
- Purity (%) at day 21 (60° C.) (pH 5.0, day 21, 60° C.): 1.5 ± 0.3%
- Purity(%) at day 0 (pH 6.0, day 0): 97.5 ± 0.3%
- Purity(%) at day 21 (5° C.) (pH 6.0, day 21, 5° C.): 94.4 ± 0.3%
- Purity(%) at day 21 (25° C.) (pH 6.0, day 21, 25° C.): 88.9 ± 0.2%
- Purity(%) at day 21 (40° C.) (pH 6.0, day 21, 40° C.): 21.6 ± 0.2%
- Purity (%) at day 21 (60° C.) (pH 6.0, day 21, 60° C.): 0%
- Purity(%) at day 0 (pH 7.0, day 0): 97.3 ± 0.3%
- Purity(%) at day 21 (5° C.) (pH 7.0, day 21, 5° C.): 89.0 ± 0.3%
- Purity(%) at day 21 (25° C.) (pH 7.0, day 21, 25° C.): 59.8 ± 0.3%
- Purity(%) at day 21 (40° C.) (pH 7.0, day 21, 40° C.): 5.4 ± 0.3%
- Purity (%) at day 21 (60° C.) (pH 7.0, day 21, 60° C.): 0%
- Purity(%) at day 0 (pH 8.0, day 0): 96.9 ± 0.4%
- Purity(%) at day 21 (5° C.) (pH 8.0, day 21, 5° C.): 77.1 ± 0.3%
- Purity(%) at day 21 (25° C.) (pH 8.0, day 21, 25° C.): 44.5 ± 0.4%
- Purity(%) at day 21 (40° C.) (pH 8.0, day 21, 40° C.): 0%
- Purity (%) at day 21 (60° C.) (pH 8.0, day 21, 60° C.): 0%
